This passage reports IC50 results from patent publication US12091425B2 (AMGEN INC., priority 2016, dated 2024).

Molecules are shown by their SMILES. pIC50: −log10 of the molar value.

As a reminder, the pIC50 is −log10 of the IC50, conventionally taken in molar units.

Test [1] deals with T1, Mcl-1/Bim interaction, recombinant human Mcl-1 (171-327) (Homo sapiens, UniProt Q07820).
T1 construct: made in house
Kind of test: Cell free Mcl-1: Bim Affinity Assay (Mcl-1 HTRF). Format: binding. In outline:
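Biotin-Bim(51-76) peptide, TR-FRET readout, overnight incubation; IC50 from duplicate competition curves, 4-parameter fit.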
For orientation: TR-FRET usually uses a lanthanide donor and a delayed reading to cut background.

Test [2] has as its system OPM-2 human multiple myeloma cell line. The test is described as follows: Cell Viability Assay (OPM-2 10 FBS). Format: cell-based. The note with it: OPM-2 cells, CellTiter-Glo. A digest of the protocol:
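IC50 from 4-parameter logistic fit of CellTiter-Glo luminescence. 3000 cells/well, 10% FBS medium, serial compound dilutions, 16 h, 37 °C/5% CO2; read 25 min post-reagent.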
Background: In ATP-based viability assays light output follows the ATP content of the culture.

[3] abbreviates: TR-FRET, 0.1 nM Mcl-1 (171-327), 0.05 nM biotin-Bim (51-76).
[4] abbreviates: Homo sapiens, OPM-2, 16 h, 16 h.
The mark [5] stands for this setting: Homo sapiens, OPM-2, 16 h, 16 h incubation.
The mark [6] stands for this setting: cell free Mcl-1:Bim TR-FRET, recombinant human Mcl-1 (171-327).

T1 sequence (Q07820 171-327): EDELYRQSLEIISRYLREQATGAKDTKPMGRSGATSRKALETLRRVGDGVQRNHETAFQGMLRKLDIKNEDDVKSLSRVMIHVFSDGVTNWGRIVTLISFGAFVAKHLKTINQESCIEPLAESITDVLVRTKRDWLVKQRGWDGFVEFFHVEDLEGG

With `O=C1NS(=O)(=O)CCC/C=C/[C@@H](OCCN2CCOCC2)[C@@H]2CC[C@H]2CN2C[C@@]3(CCCc4cc(Cl)ccc43)COc3ccc1cc32` [Example 213, (1S,3′R,6′R,7′R,8′E)-6-chloro-7′-(2-(4-morpholinyl)ethoxy)-3,4-dihydro-2H,15′H-spiro[naphthalene-1,22′-[20]oxa[13]thia[1,14]diazatetracyclo[14.7.2.0^3,6.0^19,24]pentacosa [8,16,18,24]tetraen]-15′-one 13′,13′-dioxide], the pIC50 was 8.97 in test [1] (setting [3]) and 6.08 in test [2] (setting [4]).

In the case of `COCCNC(=O)CO[C@H]1/C=C/C[C@H](C)[C@@H](C)S(=O)(=O)NC(=O)c2ccc3c(c2)N(C[C@@H]2CC[C@H]21)C[C@@]1(CCCc2cc(Cl)ccc21)CO3` [Example 298, 2-(((1S,3′R,6′R,7′S,8′E,11′S,12′R)-6-chloro-11′,12′-dimethyl-13′,13′-dioxido-15′-oxo-3,4-dihydro-2H-[spiro[naphthalene-1,22′-20]oxa[13]thia[1,14]diazatetracyclo[14.7.2.0^3,6.0^19,24]pentacosa [8,16,18,24]tetraen]-7′-yl)oxy)-N-(2-methoxyethyl)acetamide], the pIC50 in test [1] (setting [3]) is 9.37; in test [2] (setting [4]), 6.07.

Regarding `COC[C@H]1C/C=C/[C@H](O)[C@@H]2CC[C@H]2CN2C[C@@]3(CCCc4cc(Cl)ccc43)COc3ccc(cc32)C(=O)NS(=O)(=O)C1` [Example 1087, (1S,3′R,6′R,7′S,8′E,11′R)-6-chloro-7′-hydroxy-11′-(methoxymethyl)-3,4-dihydro-2H,15′H-spiro [naphthalene-1,22′-[20]oxa[13]thia[1,14]diazatetracyclo[14.7.2.0^3,6.0^19,24]pentacosa [8,16,18,24]tetraen]-15′-one 13′,13′-dioxide], the pIC50 was 9.31 in test [1] (setting [3]) and 6.16 in test [2] (setting [5]).

`CN(C)C(=O)C[C@@H]1CC/C=C/[C@H](O)[C@@H]2CC[C@H]2CN2C[C@@]3(CCCc4cc(Cl)ccc43)COc3ccc(cc32)C(=O)NS1(=O)=O` (single isomer, unassigned) [Example 621]: the pIC50 is 9.65 in test [1] (setting [6]) and 5.44 in test [2] (16 h).

Turning to `COCCO[C@H]1/C=C/[C@@H](C)C[C@@H](C)S(=O)(=O)NC(=O)c2ccc3c(c2)N(C[C@@H]2CC[C@H]21)C[C@@]1(CCCc2cc(Cl)ccc21)CO3` [Example 1020, (1S,3′R,6′R,7′S,8′E,10′S,12′R)-6-chloro-7′-(2-methoxyethoxy)-10′,12′-dimethyl-3,4-dihydro-2H,15′H-spiro[naphthalene-1,22′-[20]oxa[13]thia[1,14]diazatetracyclo[14.7.2.0^3,6.0^19,24]pentacosa [8,16,18,24]tetraen]-15′-one 13′,13′-dioxide], the pIC50 in test [1] (setting [3]) is 8.98; in test [2] (setting [5]), 6.12.

For `COC(C)CC1CCC=CC(OC)C2CCC2CN2CC3(CCCc4cc(Cl)ccc43)COc3ccc(cc32)C(=O)NS1(=O)=O` (single isomer, unassigned) [Example 552], the pIC50 in test [1] (setting [6]) was 9.32; in test [2] (setting [4]) it was 5.60.

Consider `COCC[C@@H]1C[C@H](C)/C=C/[C@H](O)[C@@H]2CC[C@H]2CN2C[C@@]3(CCCc4cc(Cl)ccc43)COc3ccc(cc32)C(=O)NS1(=O)=O` (single isomer, unassigned) [Example 478], for which the pIC50 is 9.71 in test [1] (setting [6]) and 6.33 in test [2] (16 h).

As for `CCOC(=O)CO[C@H]1/C=C/[C@H](C)[C@H](C)[C@@H](C)S(=O)(=O)NC(=O)c2ccc3c(c2)N(C[C@@H]2CC[C@H]21)C[C@@]1(CCCc2cc(Cl)ccc21)CO3` [Example 1050, ethyl (((1S,3′R,6′R,7′S,8′E,10′S,11′S,12′R)-6-chloro-10′,11′,12′-trimethyl-13′,13′-dioxido-15′-oxo-3,4-dihydro-2H-spiro[naphthalene-1,22′-[20]oxa[13]thia[1,14]diazatetracyclo[14.7.2.0^3,6.0^19,24]pentacosa [8,16,18,24]tetraen]-7′-yl)oxy)acetate], the pIC50 was 9.23 in test [1] (setting [3]) and 6.54 in test [2] (setting [5]).

`CC[C@@H]1CC[C@H](O)/C=C/[C@@H]2CC[C@H]2CN2C[C@@]3(CCCc4cc(Cl)ccc43)COc3ccc(cc32)C(=O)NS1(=O)=O` (single isomer, unassigned) [Example 197]: the figures for the pIC50 in test [1] (setting [3]) and in test [2] (16 h) were 8.95 and 5.59, respectively.

As to `COC1CN(CCO[C@H]2/C=C/C[C@H](C)[C@@H](C)S(=O)(=O)NC(=O)c3ccc4c(c3)N(C[C@@H]3CC[C@H]32)C[C@@]2(CCCc3cc(Cl)ccc32)CO4)C1` [Example 525, (1S,3′R,6′R,7′S,8′E,11′S,12′R)-6-chloro-7′-(2-(3-methoxy-1-azetidinyl)ethoxy)-11′,12′-dimethyl-3,4-dihydro-2H,15′H-spiro[naphthalene-1,22′-[20]oxa[13]thia[1,14]diazatetracyclo[14.7.2.0^3,6.0^19,24]pentacosa [8,16,18,24]tetraen]-15′-one 13′,13′-dioxide 2,2,2-trifluoroacetic Acid], the pIC50 in test [1] (setting [6]) is 9.38; in test [2] (setting [4]) it was 6.73.

Turning to `CC(C)NC(=O)CO[C@H]1/C=C/C[C@H](C)[C@@H](C)S(=O)(=O)NC(=O)c2ccc3c(c2)N(C[C@@H]2CC[C@H]21)C[C@@]1(CCCc2cc(Cl)ccc21)CO3` [Example 296, 2-(((1S,3′R,6′R,7′S,8′E,11′S,12′R)-6-chloro-11′,12′-dimethyl-13′,13′-dioxido-15′-oxo-3,4-dihydro-2H-spiro[naphthalene-1,22′-[20]oxa[13]thia[1,14]diazatetracyclo[14.7.2.0^3,6.0^19,24]pentacosa [8,16,18,24]tetraen]-7′-yl)oxy)-N-(1-methylethyl)acetamide], the pIC50 in test [1] (setting [3]) was 9.30; in test [2] (setting [4]), 6.28.

In the case of `COC(=O)[C@@H]1CC/C=C/[C@H](O)[C@@H]2CC[C@H]2CN2C[C@@]3(CCCc4cc(Cl)ccc43)COc3ccc(cc32)C(=O)NS1(=O)=O` (single isomer, unassigned) [Example 160], the values for the pIC50 in test [1] (setting [3]) and in test [2] (16 h) were 9.40 and 5.28, respectively.

For the molecule `O=C1NS(=O)(=O)N(CC2CC2)CC/C=C/[C@H](O)[C@@H]2CC[C@H]2CN2C[C@@]3(CCCc4cc(Cl)ccc43)COc3ccc1cc32` [Example 20, (1S,3′R,6′R,7′S,8′E)-6-chloro-12′-(cyclopropylmethyl)-7′-hydroxy-3,4-dihydro-2H,15′H-spiro[naphthalene-1,22′-[20]oxa[13]thia[1,12,14]triazatetracyclo[14.7.2.0^3,6.0^19,24]pentacosa[8,16,18,24]tetraen]-15′-one 13,13′-dioxide], the results for the pIC50 in test [1] (setting [3]) and in test [2] (setting [4]) were 9.07 and 6.09, respectively.

Turning to `CC[C@@H]1CC/C=C/[C@H](OC(C)=O)[C@@H]2CC[C@H]2CN2C[C@@]3(CCCc4cc(Cl)ccc43)COc3ccc(cc32)C(=O)NS1(=O)=O` [Example 426, (1S,3′R,6′R,7′S,8′E,12′R)-6-chloro-12′-ethyl-13′,13′-dioxido-15′-oxo-3,4-dihydro-2H-spiro[naphthalene-1,22′-[20]oxa[13]thia[1,14]diazatetracyclo[14.7.2.0^3,6.0^19,24]pentacosa [8,16,18,24]tetraen]-7′-yl acetate], the pIC50 in test [1] (setting [3]) is 8.68; in test [2] (setting [4]) it was 6.03.

For the molecule `C[C@@H]1[C@@H](C)C/C=C/[C@H](OCC(=O)N2CC[C@H](O)C2)[C@@H]2CC[C@H]2CN2C[C@@]3(CCCc4cc(Cl)ccc43)COc3ccc(cc32)C(=O)NS1(=O)=O` [Example 310, (1S,3′R,6′R,7′S,8′E,11′S,12′R)-6-chloro-7′-(2-((3S)-3-hydroxy-1-pyrrolidinyl)-2-oxoethoxy)-11′,12′-dimethyl-3,4-dihydro-2H,15′H-spiro[naphthalene-1,22′-[20]oxa[13]thia[1,14]diazatetracyclo[14.7.2.0^3,6.0^19,24]pentacosa [8,16,18,24]tetraen]-15′-one 13′,13′-dioxide], the pIC50 in test [1] (setting [3]) is 9.96; in test [2] (setting [4]), 6.10.

Take `CC[C@@H]1CC/C=C/[C@H](OC)[C@@H]2CC[C@H]2CN2C[C@@]3(CCCc4cc(Cl)ccc43)COc3cc(F)c(cc32)C(=O)NS1(=O)=O` [Example 701, (1S,3′R,6′R,7′S,8′E,12′R)-6-chloro-12′-ethyl-17′-fluoro-7′-methoxy-3,4-dihydro-2H,15′H-spiro[naphthalene-1,22′-[20]oxa[13]thia[1,14]diazatetracyclo[14.7.2.0^3,6.0^19,24]pentacosa [8,16,18,24]tetraen]-15′-one 13′,13′-dioxide]: the pIC50 in test [1] (setting [6]) was 8.84; in test [2] (setting [4]), 5.69.

Regarding `C[C@@H]1[C@@H](C)C/C=C/[C@H](OCCS(N)(=O)=O)[C@@H]2CC[C@H]2CN2C[C@@]3(CCCc4cc(Cl)ccc43)COc3ccc(cc32)C(=O)NS1(=O)=O` [Example 15, 2-(((1S,3′R,6′R,7′S,8′E,11′S,12′R)-6-chloro-11′,12′-dimethyl-13′,13′-dioxido-15′-oxo-3,4-dihydro-2H-spiro[naphthalene-1,22′-[20]oxa[13]thia[1,14]diazatetracyclo[14.7.2.0^3,6.0^19,24]pentacosa[8,16,18,24]tetraen]-7′-yl)oxy)ethanesulfonamide], the pIC50 is 9.41 in test [1] (setting [3]) and 6.06 in test [2] (setting [4]).

With `CCN1C(C)C/C=C\[C@H](O)[C@@H]2CC[C@H]2CN2C[C@@]3(CCCc4cc(Cl)ccc43)COc3ccc(cc32)C(=O)NS1(=O)=O` (single isomer, unassigned) [Example 58], the results for the negative logarithm of the IC50 (pIC50) in test [1] (setting [3]) and in test [2] (16 h) were 9.00 and 5.93, respectively.
